SMILES strings stand for the structures.

Holding throughout (test): microscale thermophoresis
Test [1] has as its system Dm-LS-3 (DNA, aptamer, HFNAP: side-chain on 5' nucleobase of each coding trinucleotide, positions 19,22,25,...,61 (codon key Figure 1B)) GAAAGCAGGACTGGAGATTCGCATCGCTACTCCTCCTTGCCGTCCCACCGCCCACTGCTACCTCAGACCGAACTAGAGCTT
Particulars: 5 mM KCl, 1 mM MgCl2, 1 mM CaCl2 added; HBS-P+ buffer, 25 °C.

Test [2] concerns Dm-HS-10 (DNA, aptamer, HFNAP: side-chain on 5' nucleobase of each coding trinucleotide, positions 19,22,25,...,61 (codon key Figure 1B)) GAAAGCAGGACTGGAGATCCTTCGCATCGGCTTTCTCCCTGTCACCCCTGTTCCCCTTGACCGCAGACCGAACTAGAGCTT
The settings on record: 5 mM KCl, 1 mM MgCl2, 1 mM CaCl2 added; HBS-P+ buffer, 25 °C.

The subject of test [3] is Dm-HS-4 (DNA, aptamer, HFNAP: side-chain on 5' nucleobase of each coding trinucleotide, positions 19,22,25,...,61 (codon key Figure 1B)) GAAAGCAGGACTGGAGATCGATTCTGGTGCTGTTGATCTCCGCCATTGTGCTCCTACCCTTCGCAGACCGAACTAGAGCTT
The settings on record: 5 mM KCl, 1 mM MgCl2, 1 mM CaCl2 added; HBS-P+ buffer, 25 °C.

The test system of test [4] is Dm-CVAE-without-selection-2 (DNA, aptamer, HFNAP: side-chain on 5' nucleobase of each coding trinucleotide, positions 19,22,25,...,61 (codon key Figure 1B)) GAAAGCAGGACTGGAGATTCGTTACCGCTGTTGCTCTCTTCTCAGTTGTGCTCCTTTTCCCCCCAGACCGAACTAGAGCTT
Particulars: 5 mM KCl, 1 mM MgCl2, 1 mM CaCl2 added; HBS-P+ buffer, 25 °C.

Test [5] relates to Dm-HS-1 TGT ∆ s.c. (DNA, aptamer, as Dm-HS-1 but no side-chain at 31: fluorophenyl at 19; allylamine at 22,25,37; alcohol at 28,34,49; phenol at 46; cyclopentyl at 40; cyclopropyl at 43,58; imidazole at 52,55,61) GAAAGCAGGACTGGAGATCGATTCTGGTGCTGTTGATCTCCGCCATTGTGCTCCTACCCTTCACAGACCGAACTAGAGCTT
The settings on record: 5 mM KCl, 1 mM MgCl2, 1 mM CaCl2 added; HBS-P+ buffer, 25 °C.

The test system of test [6] is Dm-HS-8 ∆ s.c. (DNA, aptamer, none (no side-chains)) GAAAGCAGGACTGGAGATCGATTGCAGTTACGTCTCCCCTGCCCACCTTATTGCCATTCATAACAGACCGAACTAGAGCTT
The settings on record: 5 mM KCl, 1 mM MgCl2, 1 mM CaCl2 added; HBS-P+ buffer, 25 °C.

The subject of test [7] is Dm-HS-1 CGA ∆ s.c. (DNA, aptamer, as Dm-HS-1 but no side-chain at 19: allylamine at 22,25,37; alcohol at 28,34,49; phenol at 31,46; cyclopentyl at 40; cyclopropyl at 43,58; imidazole at 52,55,61) GAAAGCAGGACTGGAGATCGATTCTGGTGCTGTTGATCTCCGCCATTGTGCTCCTACCCTTCACAGACCGAACTAGAGCTT
Particulars: 5 mM KCl, 1 mM MgCl2, 1 mM CaCl2 added; HBS-P+ buffer, 25 °C.

Test [8] has as its system Dm-HS-1 TCA ∆ s.c. (DNA, aptamer, no side-chain at 61 (codon 15 TCA); others as HFNAP: fluorophenyl at 19; allylamine at 22, 25, 37; alcohol at 28, 34, 49; phenol at 31, 46; cyclopentyl at 40; cyclopropyl at 43, 58; imidazole at 52, 55) GAAAGCAGGACTGGAGATCGATTCTGGTGCTGTTGATCTCCGCCATTGTGCTCCTACCCTTCACAGACCGAACTAGAGCTT
Particulars: 5 mM KCl, 1 mM MgCl2, 1 mM CaCl2 added to HBS-P+; HBS-P+ buffer, 25 °C.

The test system of test [9] is Dm-HS-1 TTG ∆ s.c. (DNA, aptamer, no side-chain at 46 (codon 10 TTG); others as HFNAP: fluorophenyl at 19; allylamine at 22, 25, 37; alcohol at 28, 34, 49; phenol at 31; cyclopentyl at 40; cyclopropyl at 43, 58; imidazole at 52, 55, 61) GAAAGCAGGACTGGAGATCGATTCTGGTGCTGTTGATCTCCGCCATTGTGCTCCTACCCTTCACAGACCGAACTAGAGCTT
Particulars: 5 mM KCl, 1 mM MgCl2, 1 mM CaCl2 added to HBS-P+; HBS-P+ buffer, 25 °C.

Test [10] concerns Dm-HS-6 ∆ s.c. (DNA, aptamer, none (no side-chains)) GAAAGCAGGACTGGAGATTGGTAGTAACTGCTGTCCTGCTAATCATGCCGTTCACGCTGACCTCAGACCGAACTAGAGCTT
Particulars: 5 mM KCl, 1 mM MgCl2, 1 mM CaCl2 added; HBS-P+ buffer, 25 °C.

The test system of test [11] is Dm-HS-1 TGG ∆ s.c. (DNA, aptamer, no side-chain at 25 (codon 3 TGG); others as HFNAP: fluorophenyl at 19; allylamine at 22, 37; alcohol at 28, 34, 49; phenol at 31, 46; cyclopentyl at 40; cyclopropyl at 43, 58; imidazole at 52, 55, 61) GAAAGCAGGACTGGAGATCGATTCTGGTGCTGTTGATCTCCGCCATTGTGCTCCTACCCTTCACAGACCGAACTAGAGCTT
The settings on record: 5 mM KCl, 1 mM MgCl2, 1 mM CaCl2 added to HBS-P+; HBS-P+ buffer, 25 °C.

In test [12] the test system is Dm-HS-1 CCA ∆ s.c. (DNA, aptamer, as Dm-HS-1 but no side-chain at 43: fluorophenyl at 19; allylamine at 22,25,37; alcohol at 28,34,49; phenol at 31,46; cyclopentyl at 40; cyclopropyl at 58; imidazole at 52,55,61) GAAAGCAGGACTGGAGATCGATTCTGGTGCTGTTGATCTCCGCCATTGTGCTCCTACCCTTCACAGACCGAACTAGAGCTT
Particulars: 5 mM KCl, 1 mM MgCl2, 1 mM CaCl2 added; HBS-P+ buffer, 25 °C.

Test [13] concerns Dm-reference-based-random-after-selection-4 (DNA, other, HFNAP: side-chain on 5' nucleobase of each coding trinucleotide, positions 19,22,25,...,61 (codon key Figure 1B)) GAAAGCAGGACTGGAGATCATCCTTCCTTATAGCATCGGCCGTTTCCGTTGCCATCCCCCCCACAGACCGAACTAGAGCTT
Particulars: 5 mM KCl, 1 mM MgCl2, 1 mM CaCl2 added; HBS-P+ buffer, 25 °C.

For test [14], the system named is Dm-reference-based-random-after-selection-3 (DNA, other, HFNAP: side-chain on 5' nucleobase of each coding trinucleotide, positions 19,22,25,...,61 (codon key Figure 1B)) GAAAGCAGGACTGGAGATTGCTCTTGCCCGCCCTGTTGCTATCATCCCCCACCTTAGTACCCCCAGACCGAACTAGAGCTT
Particulars: 5 mM KCl, 1 mM MgCl2, 1 mM CaCl2 added; HBS-P+ buffer, 25 °C.

For `COc1cccc2c1C(=O)c1c(O)c3c(c(O)c1C2=O)C[C@@](O)(C(C)=O)C[C@@H]3O[C@H]1C[C@H](N)[C@H](O)[C@H](C)O1`, the Kd in test [1] came to 2.23 ± 0.10 µM; in [2] it was 0.06468 ± 0.0039 µM; in test [3], 0.00205 ± 0.00065 µM; in test [4] it was 0.0155 ± 0.0013 µM; in test [5], 0.0067 ± 0.001 µM; in test [7], 0.2311 ± 0.0236 µM. The Kd in test [8] amounted to 0.0101 ± 0.0016 µM; in test [9] it was 0.0326 ± 0.005 µM; in test [11] it was 0.016 ± 0.0022 µM; in [12] it was 0.1588 ± 0.0142 µM; in [13], 107.9 ± 6.9 µM; in test [14], 176.5 ± 8.0 µM. Moreover, the “Kd ∆ side-chains” value in test [6] is 4.84 ± 0.26 µM; in test [10] it was 1.51 ± 0.065 µM.

As a reminder, the Kd is a measure of binding affinity in units of concentration.

The values are drawn from PMC9352670 (2022).
